Values joined by “and” are separate entries in the source; they are usually repeats but may differ in a detail not shown here. Equal values may be shown once. “Also recorded” adds a separate entry of the source. Read-outs that look alike come from different tables or passages of the source.
Experiments:
[1] = target: LAT1/LAT2 (System L transporters) in BeWo-CTB cells (Homo sapiens, UniProt Q01650); test: Leucine uptake inhibition in BeWo-CTB (undifferentiated BeWo cells), Na+-free buffer, 3H-leucine; format: cell-based; settings: for EC50: 3 min
Sequence of LAT1/LAT2 (System L transporters) in BeWo-CTB cells (Q01650 whole entry): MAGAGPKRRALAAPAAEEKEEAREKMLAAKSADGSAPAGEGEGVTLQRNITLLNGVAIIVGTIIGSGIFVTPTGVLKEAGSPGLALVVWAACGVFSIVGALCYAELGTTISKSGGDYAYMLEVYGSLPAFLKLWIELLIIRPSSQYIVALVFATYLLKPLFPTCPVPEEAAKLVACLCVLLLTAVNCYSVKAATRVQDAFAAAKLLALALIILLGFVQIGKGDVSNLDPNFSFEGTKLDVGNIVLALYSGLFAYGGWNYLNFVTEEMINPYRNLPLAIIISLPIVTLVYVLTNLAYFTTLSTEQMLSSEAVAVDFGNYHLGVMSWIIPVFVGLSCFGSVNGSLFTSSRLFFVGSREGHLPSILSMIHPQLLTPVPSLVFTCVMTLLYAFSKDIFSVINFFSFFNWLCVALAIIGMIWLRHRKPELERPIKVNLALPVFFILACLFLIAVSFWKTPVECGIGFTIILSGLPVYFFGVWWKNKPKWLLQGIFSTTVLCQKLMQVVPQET
Sequence of LAT1/LAT2 (System L transporters) in BeWo-CTB cells (P08195 103-630 partner): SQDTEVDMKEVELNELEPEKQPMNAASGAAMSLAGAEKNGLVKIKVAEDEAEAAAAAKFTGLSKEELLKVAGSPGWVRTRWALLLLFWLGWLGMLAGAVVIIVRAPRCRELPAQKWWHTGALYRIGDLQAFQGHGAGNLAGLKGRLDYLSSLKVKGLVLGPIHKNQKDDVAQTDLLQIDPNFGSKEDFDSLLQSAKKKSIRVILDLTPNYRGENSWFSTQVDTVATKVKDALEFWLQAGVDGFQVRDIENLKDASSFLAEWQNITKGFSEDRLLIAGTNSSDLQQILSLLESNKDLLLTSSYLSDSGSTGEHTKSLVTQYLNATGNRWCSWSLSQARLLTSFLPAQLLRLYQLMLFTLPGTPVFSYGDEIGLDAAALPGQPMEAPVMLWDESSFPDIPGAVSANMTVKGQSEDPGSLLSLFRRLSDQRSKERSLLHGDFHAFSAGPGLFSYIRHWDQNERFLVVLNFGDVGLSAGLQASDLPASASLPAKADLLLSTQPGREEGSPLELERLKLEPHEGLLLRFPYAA

[2] = tested on: LAT1/LAT2 (System L transporters) in BeWo-STB cells; test: Leucine uptake inhibition in BeWo-STB (forskolin-differentiated BeWo cells), Na+-free buffer, 3H-leucine; format: cell-based, human; settings: for EC50 / inhibition of leucine uptake: BeWo-STB; for EC50: 3 min; for residual leucine uptake: 10 µM; for inhibition of leucine uptake: 10 µmol/L inhibitor
Experimental: (§1) BeWo cells (clone b30) were cultured in DMEM containing 1.0 g/L glucose (DMEM‐lowGlucose; Gibco). […] Cells were cultured in DMEM‐lowGlucose at 37°C with 5% CO2 atmosphere for 7‐14 days.
JPH203, JG336 and JX009 were synthesized following the routes described in the European Patent Application EP 2‐959‐918‐A1, 2014. Compounds were obtained as hydrochlorides, dissolved in dimethyl sulfoxide (DMSO, Merck, Darmstadt, Germany) and applied in the concentration range from 0.001 to 31.6 μmol/L. JPH203 has been characterized as highly LAT1‐specific; JX009 is described as LAT1 and LAT2‐specific inhibitor. ^37 JG336 is a derivate of JPH203 with an additional methoxy group at the peripheral phenyl moiety residue. Compound structures are depicted in Figure 4. The ^1H‐NNMR and ^13C‐NMR spectra data of the compounds were in agreement with the expected structures and are included in the Supporting Information.
FIGURE 4 Inhibition of leucine uptake in BeWo cells using small molecule inhibitors with different specificities. Dose‐response experiments in BeWo‐cytotrophoblasts (BeWo‐CTB) and forskolin‐stimulated BeWo‐syncytiotrophoblasts (BeWo‐STB) for the established LAT1‐specific inhibitor JPH203 (A) and for the alternative compound JG336 which carries an additional methoxy group as marked in the dashed red box (B). […] BCH is a widely accepted inhibitor blocking all System L mediated transport. […] (A‐C) The new inhibitors JG336 and JX009 as well as JPH203 reached maximal inhibition (first concentration without significant difference to the bottom value) at a concentration of 10 µmol/L, JG336 required 1 µmol/L for maximal inhibition in BeWo‐CTB. BCH reached maximal inhibition at 1 mmol/L in both differentiation stages. […] Dose‐response kinetics were calculated using the nonlinear four‐parameter model [Y = Bottom + (Top − Bottom)/(1 + 10^((LogEC50‐X)*HillSlope))] and ordinary fit with GraphPad Prism software.

[3] = target: SLC7 transporters in HT-29 cells (Homo sapiens, UniProt Q01650); test: Leucine uptake inhibition in HT-29 cells; settings: for EC50: EC50 of leucine uptake inhibition, Na+-free Hanks buffer
Sequence of SLC7 transporters in HT-29 cells (Q01650 whole entry): as the sequence (Q01650 whole entry) above
Sequence of SLC7 transporters in HT-29 cells (P08195 102-630 partner): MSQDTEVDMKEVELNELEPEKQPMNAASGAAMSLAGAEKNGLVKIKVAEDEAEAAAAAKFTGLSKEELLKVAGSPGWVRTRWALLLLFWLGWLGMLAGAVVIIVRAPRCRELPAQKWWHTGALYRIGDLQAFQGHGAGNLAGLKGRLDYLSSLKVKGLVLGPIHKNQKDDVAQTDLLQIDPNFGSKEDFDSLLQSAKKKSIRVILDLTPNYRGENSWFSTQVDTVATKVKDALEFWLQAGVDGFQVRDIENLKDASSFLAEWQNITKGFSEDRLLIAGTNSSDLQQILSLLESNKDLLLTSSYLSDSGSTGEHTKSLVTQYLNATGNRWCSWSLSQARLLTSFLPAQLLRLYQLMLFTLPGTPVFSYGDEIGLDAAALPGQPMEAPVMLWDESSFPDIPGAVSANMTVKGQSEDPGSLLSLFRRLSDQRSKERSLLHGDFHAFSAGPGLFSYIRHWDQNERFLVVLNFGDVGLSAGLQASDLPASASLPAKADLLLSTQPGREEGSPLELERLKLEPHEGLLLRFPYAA

Caco-2 cells = tested on: Caco-2 cells; set-up: method as in PMID 21914964; settings: cited from earlier work
[4] = tested on: LAT1/LAT2 (System L transporters) in polarized BeWo monolayer; test: Leucine transfer across polarized BeWo monolayer (Transwell), apical to basal, and intracellular leucine content; format: cell-based, human
Experimental: as §1
Before starting the transfer experiment, the formation of a tight trophoblast monolayer in BeWo cells was monitored by measuring transepithelial electrical resistance (TEER, [Ω*cm^2]) and passive diffusion as reported previously. ^38 TEER and cellular capacitance (Ccl, [µF/cm^2]) were measured every 30 minutes and analysed using the cellZscope system (nanoAnalytics, Münster, Germany) according to the manufacturer's instructions. The apparent permeability coefficient (Papp, [cm/s]) was calculated by measuring the rates of passive transfer of the paracellular pathway marker Lucifer yellow (LY) as previously described. ^39 BeWo monolayers with verified tightness were selected after 7 days of culturing on Transwell® membranes and randomly assigned to leucine transfer time courses and inhibition experiments. […] Radioactivity was quantified using Tri‐carb 2100TR Liquid Scintillation Counter (PerkinElmer).
FIGURE 5 Relevance of LAT1 and System L inhibition in leucine transfer across the placental barrier in vitro. A, Leucine transfer across a tight BeWo monolayer was measured from the apical (ie upper compartment) towards the basal (ie lower compartment) side during 6 h using the Transwell® system. […]

[5] = 167 µmol/L leucine, Na+-free Hank's buffer, read-out: EC50 of leucine uptake inhibition
[6] = 167.2 µmol/L leucine, four-parameter fit, read-out: EC50 (best-fit value in Figure 4)
[7] = BeWo-CTB, 167 µmol/L leucine, Na+-free Hank's buffer, read-out: EC50 of leucine uptake inhibition
[8] = BeWo-CTB, 167.2 µmol/L leucine, four-parameter fit, read-out: EC50 (best-fit value in Figure 4)

EC50 [1, 7] | EC50 [1, 8] [µM] | extent of leucine uptake inhibition ([3]; 167µM leucine) | EC50 ([3]; 30µM leucine) [nM] | EC50 ([3]; 167µM leucine, 3min) [nM] | SMILES | Bottom of dose-response fit (leucine uptake at maximal inhibition) ([1]; BeWo-CTB, four-parameter fit) [nmol/mg protein] | Top of dose-response fit (leucine uptake) ([1]; BeWo-CTB, four-parameter fit) [nmol/mg protein] | Bottom of dose-response fit (leucine uptake at maximal inhibition) [2] [nmol/mg protein] | Top of dose-response fit (leucine uptake) [2] [nmol/mg protein] | EC50 [2, 5] | EC50 [2, 6] [nM] | concentration reaching maximal inhibition (first concentration without significant difference to bottom value) [2] [µmol/L] | residual leucine uptake [2] [nmol/mg protein] | inhibition of leucine uptake [2] | further results
– | – | – | – | – | NC1(C(=O)O)CC2CCC1C2 (stereo not drawn) [BCH, 2‐amino‐2‐norbornane‐carboxylic acid] | 0 | 5.305 | 0 | 9.770 | 442000 nM | 442000 | – | – | – | EC50 ([1]; read-out: EC50 (best-fit value in Figure 4), BeWo-CTB, 167.2 µmol/L leucine, four-parameter fit): 709 µM; EC50 ([1]; read-out: EC50 of leucine uptake inhibition, BeWo-CTB, 167 µmol/L leucine, Na+-free Hank's buffer): 709 µM; times less effective than JX009 [2]: > 100 times
0.8 µM | 0.799 | complete leucine uptake inhibition | 210 | 730 | COc1ccc(-c2nc3cc(N)cc(COc4c(Cl)cc(C[C@H](N)C(=O)O)cc4Cl)c3o2)cc1 [JG336] | 0.622 | 2.673 | 3.212 | 8.534 | 1990 nM and 2000 nM | 1990 | 10 | 3.2 | 62.4% and 62% | concentration required for maximal inhibition ([1]; BeWo-CTB): 1 µmol/L
3.1 µM | 3.08 | complete leucine uptake inhibition | 150 | 2170 | Nc1cc(COc2c(Cl)cc(C[C@H](N)C(=O)O)cc2Cl)c2oc(-c3ccccc3)nc2c1 [JPH203] | 0.716 | 3.888 | 3.758 | 8.593 | 2550 nM and 2600 nM | – | 10 | 3.8 | 56.3% and 56% | permeability (membrane and cell layer) (Caco-2 cells): has been shown

SMILES | EC50 [1, 7] | EC50 [1, 8] [µM] | extent of leucine uptake inhibition ([3]; 167µM leucine) | EC50 ([3]; 30µM leucine) [nM] | EC50 ([3]; 167µM leucine, 3min) [nM] | Bottom of dose-response fit (leucine uptake at maximal inhibition) ([1]; BeWo-CTB, four-parameter fit) [nmol/mg protein] | Top of dose-response fit (leucine uptake) ([1]; BeWo-CTB, four-parameter fit) [nmol/mg protein] | Bottom of dose-response fit (leucine uptake at maximal inhibition) [2] [nmol/mg protein] | Top of dose-response fit (leucine uptake) [2] [nmol/mg protein] | EC50 [2, 5] | EC50 [2, 6] [nM] | concentration reaching maximal inhibition (first concentration without significant difference to bottom value) [2] [µmol/L] | residual leucine uptake [2] [nmol/mg protein] | inhibition of leucine uptake [2] | further results
CN(C)c1ccc(-c2cccc(Oc3cccc(C[C@H](N)C(=O)O)c3)c2)cn1 [JX009] | 3.9 µM and < 4 µM | 3.86 | complete leucine uptake inhibition | 600 | 3760 | 0.774 | 4.066 | 1.093 | 8.426 | 2350 nM and 2300 nM | 2350 | 10 | – | 87% | inhibition of leucine uptake ([1]; BeWo-CTB (regardless of differentiation stage)): 87%; decrease of intracellular 3H-leucine content of BeWo monolayer ([4]; 10 µM): no effect; decrease of intracellular 3H-leucine content of BeWo monolayer ([4]; 10 µmol/L, end of transfer experiment (6 hours)): intracellular leucine retention; also recorded: unchanged

Reference: article PMC7687008, “Small molecule inhibitors provide insights into the relevance of LAT1 and LAT2 in materno‐foetal amino acid transport” (Journal of Cellular and Molecular Medicine, 2020)
